Results published in patent publication US8633232B2, “Compounds, compositions and methods of using same for modulating uric acid levels” (Ardea Biosciences, Inc., priority 2008, dated 2014).
pEC50: −log10 of the molar value. Counter-ions that a name gives are not always drawn.

Experiments:
[1] = tested on: healthy adult male human volunteers; assay: In vivo uric acid lowering activity, multiple ascending dose placebo-controlled study
Protocol: 16 healthy male individuals, aged 18-45 years inclusive, with a body mass index (BMI) within 18-30 kg/m^2 inclusive, having provided a written informed consent, non smokers for at least 6 months, not using any drug treatment for 2 weeks before screening (2 months for enzyme-inducing drugs) except occasional Acetaminophen. The individuals were confined at the clinical site beginning the day before dose administration until 72 hours after the final dose administration on Day 17 and returned for a follow-up visit on Day 21±1.
Matching placebo capsules were supplied as size 2 gelatin capsules. Individuals were randomized to receive the same number of placebo capsules as administered to the active individuals.
Capsules (active or placebo) were administered orally with 240 mL water 30 min after a standard breakfast (morning dose) and dinner (evening dose) for 14 days.
16 individuals (8 individuals [6 active and 2 placebo] per dose group). • a. Group 1: Placebo • b. Group 2: 300 mg (3×100-mg capsules) example 1 b.i.d. • c. Group 3: 500 mg (5×100-mg capsules) example 1 b.i.d.
Blood was collected from the individuals on days 0, 3, 7, 14 and at follow-up. Serum uric levels were measured using standard automated procedures. The results are shown in the table below (uric acid levels in μmol/L).

hURAT1 Transporter = biological target: T1, hURAT1 Transporter (Homo sapiens, UniProt Q96S37); assay: Uric Acid Uptake Assay; type: cell-based; conditions: HEK293/urat1 cells; C14 Uric Acid 40 μM; 10 minutes at room temperature
T1 construct: Full-length human URAT1 gene (SLC22A12) was subcloned from plasmid pCMV6-XL5
T1 sequence (Q96S37 1-553): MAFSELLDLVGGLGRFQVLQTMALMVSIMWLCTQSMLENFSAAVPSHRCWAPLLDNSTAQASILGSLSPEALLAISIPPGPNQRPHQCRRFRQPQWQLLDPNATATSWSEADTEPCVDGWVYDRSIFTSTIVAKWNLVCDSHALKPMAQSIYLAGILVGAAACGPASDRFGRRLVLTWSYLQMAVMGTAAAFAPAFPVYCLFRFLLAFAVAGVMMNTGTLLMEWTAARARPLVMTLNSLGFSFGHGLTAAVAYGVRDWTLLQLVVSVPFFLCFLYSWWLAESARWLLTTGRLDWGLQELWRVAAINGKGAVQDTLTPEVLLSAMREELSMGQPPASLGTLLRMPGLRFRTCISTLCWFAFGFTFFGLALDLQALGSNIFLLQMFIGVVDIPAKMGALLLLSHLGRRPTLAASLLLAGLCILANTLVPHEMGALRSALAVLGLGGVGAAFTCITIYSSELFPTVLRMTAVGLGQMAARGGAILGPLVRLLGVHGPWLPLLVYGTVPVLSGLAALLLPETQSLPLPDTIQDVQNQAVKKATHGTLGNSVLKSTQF
Excerpt: Creation of Stable Cell Lines Expressing hURAT1 Transporter: Full-length human URAT1 gene (SLC22A12) was subcloned from plasmid pCMV6-XL5 (Origene) into eukaryotic expression plasmid pCMV6/Neo (Origene) using Not I restriction sites. Gene sequencing confirmed the sequence of hURAT1 as outlined in Genbank (Accession #NM_144585.2). HEK293 human embryonic kidney cells (ATCC#CRL-1573) were propagated in EMEM tissue culture medium as described by ATCC in an atmosphere of 5% CO2 and 95% air. Transfections of HEK293 cells with the pCMV6/Neo/URAT1 construct were performed using L2000 transfection reagent (Invitrogen) as described by the manufacturer. After 24 h the transfected cells were split into 10 cm tissue culture plates and grown for 1 day after which the medium was replaced with fresh growth medium containing G418 (Gibco) at 0.5 mg/ml final concentration. Drug-resistant colonies were selected after approximately 8 days and then tested for ^14C-uric acid transport activity. The HEK293/urat1 cells are plated on Poly-D-Lysine Coated 96-well Plates at a density of 75,000 cells per well.
Cells were grown overnight (20-26 hours) at 37° C. in an incubator. Plates were allowed to come to room temperature and media was washed out with one wash of […] of Wash Buffer (125 mM Na Gluconate, 10 mM Hepes ph 7.3). Compound or vehicle is added in assay buffer with C14 Uric Acid for a final concentration of 40 μM Uric Acid with a specific activity of 54 mCi/mmol. Assay Buffer is 125 mM Sodium Gluconate, 4.8 mM Potassium Gluconate, 1.2 mM Potassium phosphate, monobasic, 1.2 mM magnesium sulfate, 1.3 mM Ca Gluconate, 5.6 mM Glucose, 25 mM HEPES, pH 7.3. Plates were incubated at room temperature for 10 minutes then washed 3 times with 50 μl Wash Buffer and 3 times with 250 μl Wash Buffer. Microscint 20 Scintillation Fluid was added and plates were incubated overnight at 45° C. to equilibrate. Plates are then read on the TopCount Plate Reader and an EC50 value generated. (See Enomoto et al, Nature, 2002, 417, 447-451 and Anzai et al, J. Biol. Chem., 2004, 279, 45942-45950.).
Compounds prepared as described herein, were examined according to the procedure described above and EC50 values generated. […] (N/A means data not available).

[2] = In vitro metabolic stability in human liver microsomes; type: in vitro ADME; conditions: 1 uM test compound, 1 mg/mL HLM, 1 mM NADPH, 30 minute incubation at 37° C.
Protocol: (§1) In vitro metabolic stability was assessed in rat and human liver microsomes (RLM/HLM). The incubation mixer contained the following: 1 uM test compound, 1 mg/mL HLM/RLM, 100 mM potassium phosphate buffer at pH 7.4, 1 mM NADPH and 5 mM MgCl2. This mixture was preincubated for 3 min before the 30 minute incubation at 37° C. The reaction was initiated with the addition of NADPH and terminated by the addition of equal volume of acetonitrile with internal standard. Incubation samples without NADPH were used as control samples. After vortexing and centrifugation, the supernatant was injected onto LC-MS/MS for quantitation.

[3] = In vitro metabolic stability in rat liver microsomes; type: in vitro ADME; conditions: 1 uM test compound, 1 mg/mL RLM, 1 mM NADPH, 30 minute incubation at 37° C.
Protocol: as §1

physchem = conditions: for Solubility: 22° C., 24 hours
Protocol: When it appeared the saturation point was being reached, addition was stopped, and the eppendorf vial was shaken at a constant speed of 1000 rpm at 22° C. for 24 hours. The tubes were then centrifuged for 5 minutes at 10-15,000 rpm, and checked for precipitation. Samples were diluted with acetonitrile/water, (1/1) (or iso-propyl alcohol for hexane) and analyzed by HPLC against known standards.

[4] = 300 mg b.i.d. oral, Day 3, n = 6, serum
[5] = 300 mg b.i.d. oral, Day 7, n = 6, serum
[6] = 300 mg b.i.d. oral, Day 14, n = 6, serum
[7] = 300 mg b.i.d. oral, Follow up, n = 6, serum
[8] = 500 mg b.i.d. oral, Day 7, n = 6, serum
[9] = 500 mg b.i.d. oral, Day 14, n = 6, serum
[10] = 500 mg b.i.d. oral, Follow up, n = 6, serum

With O=C(CSc1nnc(Br)n1-c1ccc(C2CC2)c2ccccc12)Nc1ccc(C(=O)[O-])cc1Cl.[K+] [4-(2-(5-bromo-4-(4-cyclopropylnaphthalen-1-yl)-4H-1,2,4-triazol-3-ylthio)acetamido)-3-chlorobenzoic acid, potassium salt] the “Uric acid (μmol/L) MEAN” value [1, 4] was -100.3229 µmol/L, the “Uric acid (μmol/L) MEDIAN” value [1, 4] was -101.4134 µmol/L and the “Uric acid (μmol/L) MEAN” value [1, 5] was -126.2959 µmol/L. For the same compound, the “Uric acid (μmol/L) MEDIAN” value [1, 5] was -119.8522 µmol/L, the “Uric acid (μmol/L) MEAN” value [1, 6] was -121.2401 µmol/L and the “Uric acid (μmol/L) MEDIAN” value [1, 6] was -104.9822 µmol/L. The “Uric acid (μmol/L) MEAN” value [1, 7] was -2.2801 µmol/L, the “Uric acid (μmol/L) MEDIAN” value [1, 7] was 0.8922 µmol/L and the “Uric acid (μmol/L) MEDIAN” value ([1]; 500 mg b.i.d. oral, Day 3, n = 6, serum) was -112.1198 µmol/L. The “Uric acid (μmol/L) MEAN” value [1, 8] was -127.6837 µmol/L, the “Uric acid (μmol/L) MEDIAN” value [1, 8] was -144.2390 µmol/L and the “Uric acid (μmol/L) MEAN” value [1, 9] was -111.8224 µmol/L. The “Uric acid (μmol/L) MEDIAN” value [1, 9] was -124.9080 µmol/L, the “Uric acid (μmol/L) MEAN” value [1, 10] was 27.2617 µmol/L and the “Uric acid (μmol/L) MEDIAN” value [1, 10] was 27.3608 µmol/L.
For CC(C)(Sc1nnc(Br)n1-c1ccc(C2CC2)c2ccccc12)C(=O)O [Example 3, 2-(5-Bromo-4-(4-cyclopropylnaphthalen-1-yl)-4H-1,2,4-triazol-3-ylthio)-2-methylpropanoic acid], the pEC50 (hURAT1 Transporter) was 6.00 to 9.00, the “Liver Microsome Stability % Remaining Human” value [2] was 97 ± 2% and the “Liver Microsome Stability % Remaining Rat” value [3] was 98 ± 0.1%.
In the case of COC(=O)CSc1nnc(Br)n1-c1ccc(C2CC2)c2ccccc12 [Example 102, Methyl 2-(5-bromo-4-(4-cyclopropylnaphthalen-1-yl)-4H-1,2,4-triazol-3-ylthio)acetate], the pEC50 (hURAT1 Transporter) was 4.52 to 6.00.
Work on O=C(O)CSc1nnc(Br)n1-c1ccc(C2CC2)c2ccccc12 [Example 104, Sodium 2-(5-bromo-4-(4-cyclopropylnaphthalen-1-yl)-4H-1,2,4-triazol-3-ylthio)acetate] yielded a solubility at 24 h (physchem; 22 °C, pH 4.85, water, thermodynamic from solid, Solubility (mg/mL)) of 49200 µg/mL.
For O=C(O)CSc1nnc(Br)n1-c1ccc(C2CC2)c2ccccc12 [Piperazine salt, 2-(5-bromo-4-(4-cyclopropylnaphthalen-1-yl)-4H-1,2,4-triazol-3-ylthio)acetate], the “Solubility” value (physchem; Acetone) was 260 µg/mL, the “Solubility” value (physchem; DMSO) was ~54000 µg/mL and the “Solubility” value (physchem; EtOAc) was 55 µg/mL. The “Solubility” value (physchem; Ethanol) was 9100 µg/mL, the “Solubility” value (physchem; IPA) was 1600 µg/mL and the “Solubility” value (physchem; PEG-400) was 2400 µg/mL.
With CCOC(=O)CSc1nnc(C(F)(F)F)n1-c1c(C)cc(C)c2c1CCCC2 [ethyl 2-(4-(2,4-dimethyl-5,6,7,8-tetrahydronaphthalen-1-yl)-5-(trifluoromethyl)-4H-1,2,4-triazol-3-ylthio)acetate] the pEC50 (hURAT1 Transporter) was < 4.52.
Work on CCOC(=O)CSc1nncn1-c1ccc(C)c2ccc(C)cc12 [ethyl 2-(4-(4,7-dimethylnaphthalen-1-yl)-4H-1,2,4-triazol-3-ylthio)acetate] yielded a pEC50 (hURAT1 Transporter) of 4.52 to 6.00.
In the case of CCOC(=O)CSc1nnc(C(F)F)n1-c1ccc(CC)c2ccccc12 [ethyl 2-(5-(difluoromethyl)-4-(4-ethylnaphthalen-1-yl)-4H-1,2,4-triazol-3-ylthio)acetate], the pEC50 (hURAT1 Transporter) was < 4.52.
For CCOC(=O)CSc1nnc(CF)n1-c1ccc(C)c2c1CCCC2 [ethyl 2-(5-(fluoromethyl)-4-(4-methyl-5,6,7,8-tetrahydronaphthalen-1-yl)-4H-1,2,4-triazol-3-ylthio)acetate], the pEC50 (hURAT1 Transporter) was 4.52 to 6.00.
With CCOC(=O)C(C)(C)Sc1nnc(N)n1-c1ccc(C2CC2)c2ccccc12 [ethyl 2-(5-amino-4-(4-cyclopropylnaphthalen-1-yl)-4H-1,2,4-triazol-3-ylthio)-2-methylpropanoate] the pEC50 (hURAT1 Transporter) was < 4.52.
CCOC(=O)C(C)(C)Sc1nnc(Br)n1-c1ccc(C2CC2)c2ccccc12 [ethyl 2-(5-bromo-4-(4-cyclopropylnaphthalen-1-yl)-4H-1,2,4-triazol-3-ylthio)-2-methylpropanoate] showed a pEC50 (hURAT1 Transporter) of 6.00 to 9.00.
CCOC(=O)CCSc1nnc(N)n1-c1ccc(C2CC2)c2ccccc12 [ethyl 3-(5-amino-4-(4-cyclopropylnaphthalen-1-yl)-4H-1,2,4-triazol-3-ylthio)propanoate] showed a pEC50 (hURAT1 Transporter) of 4.52 to 6.00.
In the case of CCOC(=O)CCSc1nnc(Br)n1-c1ccc(C2CC2)c2ccccc12 [ethyl 3-(5-bromo-4-(4-cyclopropylnaphthalen-1-yl)-4H-1,2,4-triazol-3-ylthio)propanoate], the pEC50 (hURAT1 Transporter) was 4.52 to 6.00.
